Results from patent US10782295B2, “Cysteine-reactive ligand discovery in proteomes” (THE SCRIPPS RESEARCH INSTITUTE, priority 2013, dated 2020).

What was measured:
Experiment in all cases: competitive isoTOP-ABPP, MDA-MB-231 soluble proteome
MACROD1 = molecular target: T1, MACROD1 (Homo sapiens, UniProt Q9BQ69); format: binding; details: 100 μM LDE, 60 min; peptide LEVDAIVNAANSSLLGGGGVDGC*IHR
T1 construct: directly in native proteomes; endogenous in cells; host or cells: MDA-MB-231
T1 sequence (Q9BQ69 1-325): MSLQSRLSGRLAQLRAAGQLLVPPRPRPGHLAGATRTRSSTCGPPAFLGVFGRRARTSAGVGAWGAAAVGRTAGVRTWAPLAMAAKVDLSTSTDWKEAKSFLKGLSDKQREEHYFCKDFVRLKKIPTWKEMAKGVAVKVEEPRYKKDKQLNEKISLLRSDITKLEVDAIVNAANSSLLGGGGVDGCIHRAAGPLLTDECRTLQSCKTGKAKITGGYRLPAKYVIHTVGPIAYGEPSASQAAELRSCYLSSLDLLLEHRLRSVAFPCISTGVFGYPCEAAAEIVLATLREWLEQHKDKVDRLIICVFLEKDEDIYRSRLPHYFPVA
Description: (§1) Here, we envisioned that isoTOP-ABPP could be advanced to discover and quantify reactions between cysteines in proteomes and any electrophilic compound. In this advanced, ‘competitive’ version of isoTOP-ABPP (FIG. 1a), a proteome is treated with an electrophile (experimental sample) or DMSO (control sample). Both proteomic samples are then labeled with the IA probe and conjugated by CuAAC to light and heavy azide-biotin tags, respectively. The light and heavy samples are then mixed and subjected to our described isoTOP-ABPP protocol for enrichment, identification, and quantification of IA-labeled cysteines^30. Electrophile-modified cysteines are quantified by measuring the MS1 chromatographic peak ratios (R values) for heavy (DMSO-treated) over light (electrophile-treated) samples, with higher R values reflecting greater sensitivity to the electrophile. In this format, competitive isoTOP-ABPP can assay electrophiles against 1000+ cysteines in parallel directly in native proteomes without requiring any chemical modification to the electrophiles themselves.
(§2) Competitive isoTOP-ABPP experiments were performed in quadruplicate using the soluble proteome of the human breast cancer cell line MDA-MB-231 cell line. Proteomes were treated with 100 μM HNE, 15d-PGJ2, or 2-HD, for 60 minutes, followed by the IA-probe (100 μM, 60 min) A total of ˜1400 cysteine reactivities were quantified across the aggregate data set, with at least 900 cysteine reactivities quantified for each LDE (FIG. 2a) more than 750 of which were quantified for all the three electrophiles.
(§3) HNE was purchased from EMD biosciences, 15d-PGJ2 was purchased from Cayman Chemicals and 2-HD was purchased from Santa Cruz Biotechnology. Proteome samples were diluted to a 4 mg protein/mL solution in PBS. For each profiling experiment, one aliquot of the proteome sample (0.5 mL) was treated with 100 μM of LDE using 5 μL of a 10 mM stock and the other aliquot was treated with 5 μL of either ethanol (for HNE and 15d-PGJ2) or DMSO (for 2-HD) as control. For the concentration-dependent profiling experiments using HNE, aliquots of the proteomes (0.5 mL each) were treated with 5, 10, 50, 100 and 500 μM of HNE using 5 μL of 0.5, 1.0, 5, 10 and 50 mM of stock solution, respectively. After 60 minutes of treatment at room temperature, both the LDE-treated and control aliquots were passed through a NAP-5 Sephadex column (GE healthcare) to remove any unreacted LDE. The volume of each aliquot was increased to 1 mL with the concentration at 2 mg/mL after this step.
(§4) Each of the control and LDE-treated proteome samples (˜2 mg protein/mL in 1 mL volume) was treated with 100 μM of IA-probe using 10 μL of a 10 mM stock in DMSO. The labeling reactions were incubated at room temperature for 1 hour. Click chemistry (acetylene-azide cycloaddition) was performed by the addition of 100 μM of either the Heavy-TEV-Tag (for the control sample) or Light-TEV-Tag (for the LDE-treated sample) (20 μL of a 5 mM stock), 1 mM TCEP (fresh 50× stock in water), 100 μM ligand (17× stock in DMSO:t-Butanol 1:4) and 1 mM CuSO4 (50× stock in water). Samples were allowed to react at room temperature for 1 hour. After the click chemistry step, the light and heavy-labeled samples were mixed together and centrifuged (5900×g, 4 min, 4° C.) to pellet the precipitated proteins.
(§5) The pellets were washed twice in cold MeOH, after which the pellet was solubilized in PBS containing 1.2% SDS via sonication and heating (5 min, 80° C.). Samples were subjected to streptavidin enrichment of probe-labeled proteins, sequential on-bead trypsin and TEV digestion, and liquid chromatography-mass spectrometry (LC-MS) analysis according to the published isoTOP-ABPP protocol^30.
(§6) IA-probe labeled peptides were identified by SEQUEST2 and DTASelect3, and the quantification of heavy/light ratios (isoTOP-ABPP ratios, R) was performed by an in-house software (CIMAGE) as previously described. […]

MAPK9 = molecular target: T2, MAPK9 (Homo sapiens, UniProt P45984); format: binding; details: 100 μM LDE, 60 min; peptide TLEEFQDVYLVMELMDANLC*QVIHMELDHER
T2 construct: directly in native proteomes; endogenous in cells; host or cells: MDA-MB-231
T2 sequence (P45984 whole entry): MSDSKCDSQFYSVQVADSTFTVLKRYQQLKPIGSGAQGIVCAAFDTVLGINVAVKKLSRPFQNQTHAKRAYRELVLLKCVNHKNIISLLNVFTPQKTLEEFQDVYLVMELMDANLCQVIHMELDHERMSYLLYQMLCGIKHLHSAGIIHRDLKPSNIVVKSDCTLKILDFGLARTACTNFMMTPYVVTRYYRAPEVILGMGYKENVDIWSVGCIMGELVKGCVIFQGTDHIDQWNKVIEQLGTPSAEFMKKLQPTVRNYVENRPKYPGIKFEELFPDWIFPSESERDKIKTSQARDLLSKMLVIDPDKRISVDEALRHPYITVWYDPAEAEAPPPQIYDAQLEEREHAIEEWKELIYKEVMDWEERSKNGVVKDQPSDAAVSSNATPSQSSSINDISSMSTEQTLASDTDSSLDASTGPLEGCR
Description: as §1, §2, §3, §4, §5, §6

PEF1 = molecular target: T3, PEF1 (Homo sapiens, UniProt Q9UBV8); format: binding; details: 100 μM LDE, 60 min; peptide QALVNC*NWSSFNDETCLMMINMFDK
T3 construct: directly in native proteomes; endogenous in cells; host or cells: MDA-MB-231
T3 sequence (Q9UBV8 1-284): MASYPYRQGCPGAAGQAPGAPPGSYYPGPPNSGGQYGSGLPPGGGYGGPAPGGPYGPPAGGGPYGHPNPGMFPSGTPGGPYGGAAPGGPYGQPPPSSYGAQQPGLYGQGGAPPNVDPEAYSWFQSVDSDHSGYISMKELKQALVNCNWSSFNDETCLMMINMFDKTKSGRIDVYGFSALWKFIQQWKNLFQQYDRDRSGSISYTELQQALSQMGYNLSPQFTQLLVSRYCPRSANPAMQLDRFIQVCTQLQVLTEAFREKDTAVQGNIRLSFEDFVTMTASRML
Description: as §1, §2, §3, §4, §5, §6

RPL23 = molecular target: T4, RPL23 (Homo sapiens, UniProt P62829); format: binding; details: 100 μM LDE, 60 min; peptide ISLGLPVGAVINC*ADNTGAK
T4 construct: directly in native proteomes; endogenous in cells; host or cells: MDA-MB-231
Description: as §1, §2, §3, §4, §5, §6

AHSG = format: binding, human; details: 100 μM LDE, 60 min; peptide C*DSSPDSAEDVR
Description: as §1, §2
HNE was purchased from EMD biosciences, 15d-PGJ2 was purchased from Cayman Chemicals and 2-HD was purchased from Santa Cruz Biotechnology. Proteome samples were diluted to a 4 mg protein/mL solution in PBS. […]
as §6

In the case of `CCCCCC(O)/C=C/C=O` (stereo not drawn) [4-HNE, 4-Hydroxynonenal], the “R value (isoTOP-ABPP ratio heavy/light) for IA-labeled cysteine of MACROD1” value (MACROD1) is reported as 1.56, the “R value (isoTOP-ABPP ratio heavy/light) for IA-labeled cysteine of MAPK9” value (MAPK9) is reported as 5.08 and the “R value (isoTOP-ABPP ratio heavy/light) for IA-labeled cysteine of PEF1” value (PEF1) is reported as 5.14. For the same molecule, the “R value (isoTOP-ABPP ratio heavy/light) for IA-labeled cysteine of RPL23” value (RPL23) was 1.73 and the “R value (isoTOP-ABPP ratio heavy/light) for IA-labeled cysteine of AHSG” value (AHSG) was 1.35.

`CCCCCCCCCCCCC/C=C/C=O` [2-HD, 2-trans-hexadecenal] was tested, and the “R value (isoTOP-ABPP ratio heavy/light) for IA-labeled cysteine of MACROD1” value (MACROD1) was 1.02, the “R value (isoTOP-ABPP ratio heavy/light) for IA-labeled cysteine of MAPK9” value (MAPK9) was 1.14 and the “R value (isoTOP-ABPP ratio heavy/light) for IA-labeled cysteine of PEF1” value (PEF1) was 1.25. For the same molecule, the “R value (isoTOP-ABPP ratio heavy/light) for IA-labeled cysteine of RPL23” value (RPL23) was 1.87 and the “R value (isoTOP-ABPP ratio heavy/light) for IA-labeled cysteine of AHSG” value (AHSG) was 1.12.

With `CCCCC/C=C/C=C1/C(=O)C=C[C@@H]1C/C=C\CCCC(=O)O` [PGJ2, 15-deoxy-Δ12,14-prostaglandin J2] the “R value (isoTOP-ABPP ratio heavy/light) for IA-labeled cysteine of MACROD1” value (MACROD1) was 7.65, the “R value (isoTOP-ABPP ratio heavy/light) for IA-labeled cysteine of MAPK9” value (MAPK9) was 1.78 and the “R value (isoTOP-ABPP ratio heavy/light) for IA-labeled cysteine of PEF1” value (PEF1) was 2.9. For the same molecule, the “R value (isoTOP-ABPP ratio heavy/light) for IA-labeled cysteine of RPL23” value (RPL23) was 5.06 and the “R value (isoTOP-ABPP ratio heavy/light) for IA-labeled cysteine of AHSG” value (AHSG) was 5.73.
